Experimental data: patent publication US20150239864A1, “3H-1,2-DITHIOCYCLOPENTENE-3-THIOKETONE COMPOUNDS AND APPLICATION THEREOF” (Soochow University, priority 2012, published 2015)

What was measured:
HT22 cells = assay: Glutamate-induced neural oxidative stress injury model in HT22 cells, survival by MTT; type: cell-based, Mouse; settings: 5 mM glutamate added with compound at 1, 10, 50 or 100 μM, MTT after 24 h
Procedure: Mouse Hippocampal neuron cell line HT22, 24-well culture plate (Corning), glutamic acid (Glutamate, Sigma), DMEM culture medium (GIBCO), fetal bovine serum (GIBCO), 3-(4,5-dimethylthiazol-2-yl)-2,5-diphenyltetrazolium bromide (MTT, Sigma), dimethyl sulfoxide (Sinopharm Group. Co. Ltd.), and microplate reader (TECAN).
2.1. Cell culture: HT22 cells were taken out of the liquid nitrogen container, and thawed quickly in a water-bath at 37° C. After that, the outside wall of cryopreservation tube was disinfected by alcohol wipes, and it was then placed in a clean bench. The cells were transferred to a centrifuge tube containing 10 ml medium and centrifuged at 1000 rpm for 3 min. After centrifugation, the supernatant was discarded, and 10 mL DMEM containing 10% FBS was added to the centrifuge tube. The mixture was vigorously pipetted to prepare a cell suspension. The cell suspension was inoculated to a 100×20 mm Petri dish. Cells were cultured at 37° C. and 5% CO2. When the cell density reached confluent, the cells were digested and seeded onto the wells of a 24-well plate at the density of 2×10^4/well.
2.2. Treatment and groups: after the cells were cultured in the 24-well plate for 24 hours, 5 mM glutamate was added together with the compound each synthesized in Example 1-10 or Example 13 at a final concentration of 1, 10, 50, or 100 μM. DMSO served as vehicle and was added to the cells of the control group at an equal volume. The viability of the cells was detected by MTT method 24 h after the treatment.
2.3. Detection by MTT: 50 μL, 0.5 mg/ml MTT was added to each well 24 h after the treatment of cells. The cells were further incubated at 37° C. and 5% CO2 for 4 h. Subsequently, the supernatant was discarded. The cells were lysed by adding 500 μL dimethyl sulfoxide (DMSO). The absorbance was detected at 570 nm by a microplate reader, which is positively correlated with survival rate of cells. The survival rate of the cells in the treatment groups was expressed as the percent of the survival rate of the cells without glutamate treatment. All data were expressed as mean±standard deviation (SD). Statistical analysis was carried out for all data using SPSS 17.0. The difference between the groups was tested by one way anova. P<0.01 was considered as very significant difference.

microglia cell line BV2 = assay: LPS-induced inflammatory response of microglia, nitrite by Griess reagent; type: cell-based; settings: 200 ng/mL LPS, 24 h, compound at 10-100 μM, vs LPS alone, p<0.01
Procedure: Brain microglia cell line BV-2, 96-well culture plate (Corning, USA), DMEM medium (Hyclone, USA), fetal bovine serum (FBS) (GIBCO, USA), dimethyl sulfoxide (DMSO) (SIGMA, USA), Griess reagent (SIGMA, USA), sodium nitrite (ChemNet, China), microplate reader (BIO-RAD, USA)
2.1. Cell cultures: After taken out of the liquid nitrogen container, BV-2 cells were quickly placed in warm water at 37° C. and gently shaken for thawing. Subsequently, it was centrifuged at 1000 rpm for 3 min, and the supernatant was discarded. […] When 60%-70% of confluence of the passaged cells was achieved, the cells were harvested by centrifugation at 1000 rpm for 3 min. The cells were then stained by trypan blue and counted under a microscope by globulimeter. After cell counting, it was diluted into a suspension containing 150 to 200 thousand of cells/ml, which was then plated in the 96-well plate (15 to 20 thousand of […]).
2.2. Treatment and groups: after the cells were cultured in the […] for 24 h, 200 ng/mL LPS was added together with compound YC1-1 of Example 1, YC1-8 of Example 8 and YC2-2 of Example 12 at a final concentration of 1, 10, 50, or 100 μM. DMSO served as vehicle and was added to the cells of control group at the equal volume. The cells were further incubated in an incubator.
2.3. The amount of nitrite produced was detected 24 h after the atreatment, to characterize the inflammatory response of BV2 cells induced by LPS and the inhibitory effect of compound YC1-1 of Example 1 and compound YC1-8 of Example 8 on the LPS-induced inflammatory response.
Detection method of nitrite: […], supernatant was taken out of the wells of 96-well plate, and added to the corresponding wells of another clean 96-well plate. Subsequently, 50 μL Griess reagent was added to each well, and the OD value was detected at 570 nm. The amount of nitrite was calculated based on the standard curve. The result was expressed as the relative yield of nitrite, wherein the relative yield of the control group treated only by LPS was designated as 1. All data were expressed as mean±standard deviation (SD). […]

[1] = tested on: mouse middle cerebral artery occlusion model; assay: Mouse middle cerebral artery occlusion (MCAO) model, infarct volume by TTC staining; type: in vivo; settings: half at 3 h and half at 10 h of reperfusion, 24 h after MCAO, vs vehicle, p<0.05
Procedure: Male ICR mice (body weight of 30±2.0 g) were purchased from Shanghai Laboratory Animal Center, Chinese Academy of Sciences. The mice were raised at room temperature and 12 h cycle of light and dark, with free access to food and water.
2.1. Middle cerebral artery occlusion (MCAO) model: the middle cerebral artery occlusion (MCAO) model was performed by reference to Longa's method or other modified suture-occluded method. The specific experimental procedures were as follows: after anaesthetized by isoflurane, the mouse was fixed in supine position, and the skin of neck and head was sterilized using iodine. The probe of laser-Doppler blood flowmeter was fixed at the midpoint of the line between the ear and the eye on the right side of the mouse to monitor the real-time perfusion in the cerebral cortex. A 1.5 cm incision was made in the middle of the neck to expose common carotid artery on the right side. Tissues were separated under an operating microscope layer by layer. The common carotid artery was first separated which was temporarily ligated 0.5 cm away from the distal end using 5-0 suture. Then, the external carotid artery and internal carotid artery on the right side were subsequently separated and the external carotid artery was ligated 0.5 cm away from the distal end using 5-0 suture. At the same time, the internal carotid artery was temporarily clamped using a mini vascular clamp. Subsequently, a small incision was made by an ophthalmic scissor on the inner side of the ligation at the distal end of the external carotid artery. To occlude the […], one of the ends of the suture was slightly enlarged by heating, coated by silica gel, and sterilized using alcohol. The length of the suture was about 2 cm, and the diameter of the enlarged end was […]. The suture was held using a fine forceps and inserted into the incision on the external carotid artery.). Once the suture passed through the incision of the external carotid artery, the ligation was lifted at the distal end of external carotid artery until the enlarged end of the suture entered the bifurcation of the […]. The suture was then tightened, and the vascular clamp on the internal carotid artery was opened. […] The starting time for occlusion was recorded. For reperfusion, the suture was withdrawn 60 min after middle cerebral artery occlusion. The rectal temperature was maintained at 37.0±0.5° C. by a heating blanket during and after the surgery, until the animal was revived.
2.2 Animal groups and drug administration: the animals were randomly divided into 3 groups, including control group treated with vehicle, YC1-8 group (100 mg/kg) and YC1-8 group (50 mg/kg). There were 8 mice in each group. 12 mg YC1-8 was initially dissolved by 80 μL DMSO, and then diluted by 920 μL corn oil to prepare a solution with the final concentration of 12 mg/mL. One half of dosage of compound YC1-8 was initially administrated at 3 h of reperfusion after ischemia by intraperitoneal injection, while the other half of dosage was administrated at 10 h of reperfusion after ischemia. For the control group, the same volume of DMSO-containing corn oil was administrated to the mice at 3 h and 10 h.
2.3. Detection of the cerebral infarct volumes: 24 h after reperfusion following mouse middle cerebral artery occlusion (MCAO), the mice were sacrificed under anesthetized and the brain was collected. After the brain tissue was stripped off, the olfactory bulb and cerebellum were removed. A series of 5 coronary sections of brain were made at an interval of 1 mm, which were then placed in 2% TTC solution at 37° C. under darkness in a warm bath. The sections were turned over every 15 min, with a total duration of 30 min. The size of cerebral infarction was determined by TTC staining method. Due to the reduction of TTC by […] in mitochondrion, normal brain tissue was red, and the ischemic infarct area was white. […]

SMILES: Fc1cc(-c2cc(=S)ss2)c(Cl)cc1Cl [YC1-5, 5-(2,4-dichloro-5-fluorophenyl)-3H-1,2-dithiacyclopentene-3-thione]
- Concentration range for protection (HT22 cells): 1 to 100 µM

SMILES: COc1ccc(-c2cc(=S)ss2)cc1 [YC1-8, 5-p-methoxyphenyl-3H-1,2-dithiacyclopentene-3-thione]
- Concentration range for protection (HT22 cells): 10 to 100 µM
- LPS induced inflammatory response of BV2 cells (nitrite production) (microglia cell line BV2): significantly inhibited
- infarction volume in cerebral cortex ([1]; 50 mg/kg YC1-8 i.p.): significantly reduced
- infarction volume in hemisphere ([1]; 50 mg/kg YC1-8 i.p.): significantly reduced
- infarction volume in striatum ([1]; 50 mg/kg YC1-8 i.p.): significantly reduced
- infarction volume in cerebral cortex ([1]; 100 mg/kg YC1-8 i.p.): significantly reduced
- infarction volume in hemisphere ([1]; 100 mg/kg YC1-8 i.p.): significantly reduced
- infarction volume in striatum ([1]; 100 mg/kg YC1-8 i.p.): significantly reduced

SMILES: S=c1cc(-c2ccccc2)ss1 [YC1-9, 5-phenyl-3H-1,2-dithiacyclopentene-3-thione]
- Concentration range for protection (HT22 cells): 1 to 100 µM

SMILES: CC(=O)Oc1ccccc1C(=O)Oc1ccc(-c2cc(=S)ss2)cc1 [YC2-2, 4-(3H-1,2-dithio-3-thioketone-5-yl)phenyl 2-acetoxy benzoate]
- LPS induced inflammatory response of BV2 cells (nitrite production) (microglia cell line BV2): significantly inhibited

SMILES: Oc1ccc(-c2cc(=S)ss2)cc1 [YC1-1, 5-p-hydroxyphenyl-3H-1,2-dithiacyclopentene-3-thione]
- Concentration range for protection (HT22 cells): 10 to 100 µM
- LPS induced inflammatory response of BV2 cells (nitrite production) (microglia cell line BV2): significantly inhibited

SMILES: Cc1ccc(-c2cc(=S)ss2)cc1 [YC1-4, 5-p-methylphenyl-3H-1,2-dithiacyclopentene-3-thione]
- Concentration range for protection (HT22 cells): 10 to 100 µM

SMILES: S=c1cc(-c2ccc3c(c2)OCO3)ss1 [YC1-6, 5-(3,4-methylenedioxyphenyl)-3H-1,2-dithiacyclopentene-3-thione]
- Concentration range for protection (HT22 cells): 1 to 100 µM

SMILES: COc1ccc(-c2cc(=S)ss2)c(OC)c1 [YC1-7, 5-(2,4-dimethoxyphenyl)-3H-1,2-dithiacyclopentene-3-thione]
- Concentration range for protection (HT22 cells): 1 to 100 µM

SMILES: O=C(Oc1ccc(-c2cc(=S)ss2)cc1)c1cccnc1 [YC2-3, 4-(3H-1,2-dithio-3-thioketone-5-yl)phenyl pyridine-3-carboxylate]
- Concentration range for protection (HT22 cells): 50 to 100 µM

SMILES: S=c1cc(-c2ccc3ccccc3c2)ss1 [YC1-10, 5-(2-naphthyl)-3H-1,2-dithiacyclopentene-3-thione]
- Concentration range for protection (HT22 cells): 1 to 100 µM

SMILES: S=c1cc(-c2cccs2)ss1 [YC1-3, 5-(2-thienyl)-3H-1,2-dithiacyclopentene-3-thione]
- Concentration range for protection (HT22 cells): 10 to 100 µM

SMILES: Fc1ccc(-c2cc(=S)ss2)cc1 [YC1-2, 5-p-fluorophenyl-3H-1,2-dithiacyclopentene-3-thione]
- Concentration range for protection (HT22 cells): 10 to 100 µM
